The term melting point denotes the temperature of the solid-liquid transition. `Cn1cc(C(=O)NCc2ccc(Cl)cc2)c(=O)c2cc(COCC[C@@H](O)c3ccccc3)sc21` showed a melting point of 154.5 to 155.5 °C.

The values are drawn from patent publication US20050004161A1 (published 2005).
